Source: patent US4820694A, “Modifications of 3-O-demethylmycinose in macrocin and lactenocin” (priority 1986, dated 1989)
≈ marks a conversion by molar mass, not a printed value. Like-named read-outs stand apart in the source and are kept apart here.

Key:
[1] = test system: Streptococcus pneumoniae Park I; experiment: microbe, parasite or virus in culture; format: cell-based; conditions: Streptococcus pneumoniae
Description: (§1) The MIC's in Table III were determined by standard agar-dilution assays. The MIC's in Table IV were obtained using conventional brothdilution microtiter tests.

[2] = test system: Staphylococcus aureus S13E; experiment: microbe, parasite or virus in culture; format: cell-based; conditions: Staphylococcus aureus, S13E
Description: as §1

[3] = test system: Streptococcus pyogenes C203; experiment: protection of mice experimentally infected with S. pyogenes C203; format: in vivo; conditions: C203, sc, Subcutaneous, mice, mg/kg × 2, doses given 1 and 4 hours postinfection, read-out: ED50
How it was run: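 Activity is given as ED50, the mg/kg dose (×2) protecting half of the mice infected with S. pyogenes C203. Compound was dosed 1 and 4 h after infection.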

Pasteurella multocida = Pasteurella multocida infection in one-day-old chicks; format: in vivo; conditions: subcutaneously, 30 mg/kg × 2, 1 and 4 hours post-challenge
Description: Some of the formula 1 compounds have also shown in vivo antibacterial activity against infections induced by Gram-negative bacteria. Table VI summarizes the results of tests in which illustrative compounds were evaluated against a Pasteurella infection in one-day-old chicks. The compounds were administered by subcutaneous injection at a dosage of 30 mg/kg, 1 and 4 hours post-challenge of the chicks with Pasteurella multocida (0.1 ml of a 10^-4 dilution of a twenty-hour tryptose broth culture of an avian P. multocida given subcutaneously). In these tests, unless indicated otherwise, all non-medicated infected chicks died within 24 hours of Pasteurella challenge.
^a Administered subcutaneously; 30 mg/kg × 2

[4] = test system: Staphylococcus aureus X400; experiment: standard agar-dilution MIC assay; format: cell-based; conditions: Staphylococcus aureus, X400
Description: as §1

[5] = test system: Streptococcus Group D X66; experiment: standard agar-dilution MIC assay; format: cell-based; conditions: read-out: MIC
Description: as §1

[6] = test system: Streptococcus Group D 9960; experiment: standard agar-dilution MIC assay; format: cell-based; conditions: GROUPD9960, read-out: MIC
Description: as §1

[7] = test system: Staphylococcus aureus V41; experiment: standard agar-dilution MIC assay; format: cell-based; conditions: Staphylococcus aureus, V41
Description: as §1

[8] = test system: Streptococcus pyogenes C203; experiment: standard agar-dilution MIC assay; format: cell-based; conditions: Streptococcus pyogenes, C203
Description: as §1

[9] = test system: Staphylococcus epidermidis EP12; experiment: standard agar-dilution MIC assay; format: cell-based
Description: as §1

[10] = test system: Staphylococcus epidermidis EPI1; experiment: standard agar-dilution MIC assay; format: cell-based; conditions: Staphylococcus epidermidis, EPI1
Description: as §1

Escherichia coli EC14 = experiment: standard agar-dilution MIC assay; format: cell-based; conditions: agar-dilution, read-out: MIC
Description: as §1

[11] = test system: Staphylococcus aureus X1.1; experiment: standard agar-dilution MIC assay; format: cell-based; conditions: Staphylococcus aureus, X1.1
Description: as §1

[12] = test system: Pseudomonas aeruginosa X239; experiment: standard agar-dilution MIC assay; format: cell-based; conditions: Pseudomonas aeruginosa, X239; agar-dilution; read-out: MIC
Description: as §1

[13] = test system: Klebsiella pneumoniae X68; experiment: standard agar-dilution MIC assay; format: cell-based; conditions: Klebsiella pneumoniae, X68; agar-dilution; read-out: MIC
Description: as §1

[14] = test system: Pasteurella multocida 60A; experiment: broth-dilution microtiter MIC test; format: cell-based; conditions: Pasteurella multocida, 60A
Description: as §1

[15] = test system: Pasteurella hemolytica 23C; experiment: broth-dilution microtiter MIC test; format: cell-based; conditions: Pasteurella, 23C
Description: as §1

[16] = test system: Pasteurella hemolytica 41D; experiment: broth-dilution microtiter MIC test; format: cell-based; conditions: Pasteurella, 41D
Description: as §1

[17] = test system: Mycoplasma gallisepticum 36H; experiment: broth-dilution microtiter MIC test; format: cell-based; conditions: Mycoplasmoides gallisepticum, 36H
Description: as §1

[18] = test system: Pasteurella multocida 17E; experiment: broth-dilution microtiter MIC test; format: cell-based; conditions: Pasteurella multocida, 17E
Description: as §1

Streptococcus sp. 19F = experiment: broth-dilution microtiter MIC test; format: cell-based; conditions: Streptococcus, SP.19F
Description: as §1

[19] = test system: Pasteurella multocida 22A; experiment: broth-dilution microtiter MIC test; format: cell-based; conditions: Pasteurella multocida, 22A
Description: as §1

[20] = test system: Mycoplasma gallisepticum 29C; experiment: broth-dilution microtiter MIC test; format: cell-based; conditions: Mycoplasmoides gallisepticum, 29C
Description: as §1

[21] = test system: Pasteurella hemolytica 22C; experiment: broth-dilution microtiter MIC test; format: cell-based; conditions: Pasteurella, 22C
Description: as §1

[22] = test system: Pasteurella multocida 40G; experiment: broth-dilution microtiter MIC test; format: cell-based; conditions: Pasteurella multocida, 40G
Description: as §1

[23] = test system: Pasteurella multocida 68C; experiment: broth-dilution microtiter MIC test; format: cell-based; conditions: Pasteurella multocida, 68C
Description: as §1

Mycoplasma hyorhinis 29E = experiment: broth-dilution microtiter MIC test; format: cell-based; conditions: Mycoplasma, 29E
Description: as §1

Mycoplasma synoviae 40A = experiment: broth-dilution microtiter MIC test; format: cell-based; conditions: Mycoplasmopsis synoviae, 40A
Description: as §1

[24] = test system: Mycoplasma gallisepticum 15E; experiment: broth-dilution microtiter MIC test; format: cell-based; conditions: Mycoplasmoides gallisepticum, 15E
Description: as §1

[25] = test system: Bordetella bronchiseptica; experiment: broth-dilution microtiter MIC test; format: cell-based; conditions: Bordetella bronchiseptica; broth-dilution microtiter; read-out: MIC
Description: as §1

[26] = test system: Staphylococcus aureus 19C; experiment: broth-dilution microtiter MIC test; format: cell-based; conditions: Staphylococcus aureus, 19C
Description: as §1

[27] = broth-dilution microtiter, read-out: MIC

Structure (SMILES) | MIC [1] | MIC [2] | ED50 [3] | Number of Deaths/Number Treated (Pasteurella multocida) | MIC [4] | MIC [5] | MIC [6] | MIC [7] | MIC [8] | MIC [9] | MIC [10] | MIC (Escherichia coli EC14) | MIC [11] | MIC [12] | MIC [13] | MIC [14] | MIC [17] | MIC [18] | MIC (Streptococcus sp. 19F) | MIC [19] | also measured
CCC1OC(=O)CC(O)C(C)C(OC2OC(C)C(O)C(N(C)C)C2OC(C)=O)C(CC=O)CC(C)C(=O)C=CC(C)=CC1COC1OC(C)C(OC(C)=O)C(O)C1OC (centres unmarked) [Compound 21, 2',4"-Di-O-acetyl-lactenocin] | 1 µg/mL (≈ 1.19 µM) | 4 µg/mL (≈ 4.75 µM) | 5.5 mg/kg | 3/10 | 8 µg/mL (≈ 9.5 µM) | 4 µg/mL (≈ 4.75 µM) | 4 µg/mL (≈ 4.75 µM) | 4 µg/mL (≈ 4.75 µM) | 1 µg/mL (≈ 1.19 µM) | 4 µg/mL (≈ 4.75 µM) | 2 µg/mL (≈ 2.38 µM) | > 128 µg/mL | 2 µg/mL (≈ 2.38 µM) | > 128 µg/mL | > 128 µg/mL | 12.5 µg/mL (≈ 14.8 µM) | 50 µg/mL (≈ 59.4 µM) | 12.5 µg/mL (≈ 14.8 µM) | 1.56 µg/mL (≈ 1.85 µM) | 12.5 µg/mL (≈ 14.8 µM) | MIC [15]: 50 µg/mL (≈ 59.4 µM); MIC [16]: 50 µg/mL (≈ 59.4 µM); MIC [20]: 3.12 µg/mL (≈ 3.71 µM); MIC [21]: 50 µg/mL (≈ 59.4 µM); MIC [22]: 12.5 µg/mL (≈ 14.8 µM); MIC [23]: 12.5 µg/mL (≈ 14.8 µM); MIC (Mycoplasma hyorhinis 29E): 6.25 µg/mL (≈ 7.42 µM); MIC (Mycoplasma synoviae 40A): 3.12 µg/mL (≈ 3.71 µM); MIC [24]: 50 µg/mL (≈ 59.4 µM); MIC [25]: > 50 µg/mL; MIC [26]: 3.12 µg/mL (≈ 3.71 µM)
CCC1OC(=O)CC(O)C(C)C(OC2OC(C)C(O)C(N(C)C)C2OC(C)=O)C(CC=O)CC(C)C(=O)C=CC(C)=CC1COC1OC(C)C(OC(C)=O)C(OC(C)=O)C1OC (centres unmarked) [Compound 23, 2',3",4"-Tri-O-acetyl-lactenocin] | 2 µg/mL (≈ 2.26 µM) | 2 µg/mL (≈ 2.26 µM) | 6.8 mg/kg | 10/10 | 4 µg/mL (≈ 4.52 µM) | 8 µg/mL (≈ 9.05 µM) | 4 µg/mL (≈ 4.52 µM) | 2 µg/mL (≈ 2.26 µM) | 2 µg/mL (≈ 2.26 µM) | 2 µg/mL (≈ 2.26 µM) | 2 µg/mL (≈ 2.26 µM) | > 128 µg/mL | 2 µg/mL (≈ 2.26 µM) | > 128 µg/mL | > 128 µg/mL | 50 µg/mL (≈ 56.6 µM) | 50 µg/mL (≈ 56.6 µM) | 25 µg/mL (≈ 28.3 µM) | 1.56 µg/mL (≈ 1.76 µM) | 50 µg/mL (≈ 56.6 µM) | MIC [15, 27]: > 50 µg/mL; MIC [16, 27]: > 50 µg/mL; MIC [20]: 1.56 µg/mL (≈ 1.76 µM); MIC [21, 27]: > 50 µg/mL; MIC [22]: 50 µg/mL (≈ 56.6 µM); MIC [23]: 25 µg/mL (≈ 28.3 µM); MIC (Mycoplasma hyorhinis 29E): 12.5 µg/mL (≈ 14.1 µM); MIC (Mycoplasma synoviae 40A): 6.25 µg/mL (≈ 7.07 µM); MIC [24]: 50 µg/mL (≈ 56.6 µM); MIC [25]: > 50 µg/mL; MIC [26]: 6.25 µg/mL (≈ 7.07 µM)
